Source: patent US11485728B2, “Small molecules for the treatment of autoimmune diseases and cancer” (Athos Therapeutics, Inc., priority 2020, dated 2022)

Experiments:
C57BL/6 mice = experiment: MTD studies in mice; assay type: in vivo
IL17 = IL17 protein levels in human CD4 T cells (ELISA); assay type: cell-based
Method: (§1) Naïve human CD4 T cells were cultured in DMEM supplemented with 10% heat-inactivated FBS, 2 mM glutamine, 100 U/ml penicillin, 100 μg/ml streptomycin and 25 mM Hepes. Human CD4 T cells were treated with anti-CD3 and anti-CD28 (100 ng/ml) together with small molecule compounds (500 nM) for 5 days. FoxP3 and CD4 positive cells were stained and imaged in a BD LSRII flow cytometer. The gated area represents the percentage CD4^highFoxP3^high immune cell population. Furthermore, the same small molecule compounds were evaluated for their effects on IL17 protein levels in human CD4 T cells by using an ELISA assay (R&D systems, cat no. D1700).

[1] = system: C57BL/6 mice with TNBS colitis; experiment: TNBS colitis in C57BL/6 mice; assay type: in vivo; design: TNBS Efficacy / Clinical Score / Histological Score / Colon Length: key to the marks not given beside the values
Method: C57BL/6 mice (20-22 grams) were fed ad lib and assigned to 4 different groups (n=8/group). After a 72 hr acclimation period the test group groups received 25 mg/kg of test compound PO (gavage) in vehicle daily. A control group received vehicle alone. After 24 hrs, mice were weighed and TNBS was injected intra-colonically using 5 cm of polyethylene (¼ inch) tubing. Mice were then treated with the test compounds and weighed daily for 4 days. Mice were sacrificed on day 4 and clinical score was assessed. Intestinal tissue for and blood were also collected. Tissues were either flash frozen and kept in −80° C. for RNA and protein isolation or placed in 10% formalin solution for future histological analysis. Blood was spun at 5K rpm for 5 min and serum was collected and kept at −20° C. for multiplex cytokine analysis.

Naïve human CD4 T cells = experiment: Differentiation of naïve human CD4 T cells into FoxP3+ Tregs (flow cytometry); assay type: cell-based; settings: 500 nM, 5 days; for Tregs (%): anti-CD3 and anti-CD28 100 ng/ml, CD4highFoxP3high population; for increase of the number of Tregs over untreated: baseline 3.2%
Method: as §1

colon cell line HCT = experiment: Gene expression (RNA-Seq) of colon cancer cells treated with Compound 156; assay type: cell-based, Human
Method: Methods: RNA was extracted from HTC colon cancer cells that has been treated or not with Compound 156 and was sent to the Technology Center for Genomics & Bioinformatics at UCLA for sequencing.
Library construction and sequencing methods: Libraries for RNA-Seq were prepared with TruSeq Stranded mRNA Library Prep Kit. The workflow consists of mRNA enrichment and fragmentation. Cleaved RNA fragments are copied into first strand cDNA using reverse transcriptase and random primers. Strand specificity is achieved by replacing dTTP with dUTP and followed by second strand cDNA synthesis using DNA Polymerase I and RNase H. cDNA generation is followed by A-tailing, adaptor ligation and PCR amplification. Different adaptors were used for multiplexing samples in one lane. Sequencing was performed on Illumina NovaSeq 6000 for PE 2×50 run. Data quality check was done on Illumina SAV. Demultiplexing was performed with Illumina Bcl2fastq v2.19.1.403 software.
Bioinformatics methods: The reads were mapped by STAR 2.27a to Human GRCh38 genome and read counts per gene were quantified using Ensembl Human GRCh38.98 GTF file. Gene differential expression analysis and downstream gene enrichment analysis was performed at Athos Therapeutics. The DESeq2 R package was used for differential expression analysis. DESeq2 FDR cutoff: 0.05, DESeq2 Log 2FC cutoff: 1 (FC cutoff: 2). Gene enrichment analysis was performed using the Enrichr (https://maayanlab.cloud/Enrichr/enrich) and gprofiler (https://biit.cs.ut.ee/gprofiler/gost) platforms.

in vitro = settings: PAMPA, 5 hours at RT
[2] = cell cycle pathway, colon cell line HCT
[3] = p53 pathway, colon cell line HCT

With `COc1cc2c(NC3CCS(=O)(=O)CC3)nc(N3CCC(F)(F)CC3)nc2cc1OCCCN1CCCC1` [Compound 1, 4-((2-(4,4-difluoropiperidin-1-yl)-6-methoxy-7-(3-(pyrrolidin-1-yl)propoxy)quinazolin-4-yl)amino)tetrahydro-2H-thiopyran 1,1-dioxide] the “effects in weight change (MTD studies)” value (C57BL/6 mice; mouse, in vivo, po) was “not cause any effects in weight change”.
For `COc1cc2c(NC3CCOCC3)nc(N3CCC(F)(F)CC3)nc2cc1OCCCN1CCCC1` [Compound 2, 2-(4,4-difluoropiperidin-1-yl)-6-methoxy-7-(3-(pyrrolidin-1-yl)propoxy)-N-(tetrahydro-2H-pyran-4-yl)quinazolin-4-amine], the IL17 protein levels (IL17) was “do not have an effect”, the “colitis associated damage in the intestine (in words)” value ([1]; 25 mg/kg PO daily) was “strong inhibitor of colitis associated damage in the intestine” and the “Clinical Score” value ([1]; 25 mg/kg PO daily, day 4) was “++”. For the same molecule, the “Colon Length” value ([1]; 25 mg/kg PO daily, day 4) was “++”, the “Histological Score” value ([1]; 25 mg/kg PO daily, day 4) was “++” and the “TNBS Efficacy” value ([1]; 25 mg/kg PO daily, day 4) was “++”. The “histological scores (in words)” value ([1]; vs vehicle treated controls) was “positive outcomes”, the “Tregs (%)” value (Naïve human CD4 T cells) was 20.1% and the “increase of the number of Tregs over untreated” value (Naïve human CD4 T cells) was 6.28 fold.
For `COc1cc2c(NC3CCN(C(C)C)CC3)nc(-n3ccnc3)nc2cc1OCCCN1CCCC1` [Compound 156, 2-(1H-imidazol-1-yl)-N-(1-isopropylpiperidin-4-yl)-6-methoxy-7-(3-(pyrrolidin-1-yl)propoxy)quinazolin-4-amine], the “Log2 Fold Change BUB1” value (colon cell line HCT; [2]) was −5.157, the “Log2 Fold Change BUB1B” value (colon cell line HCT; [2]) was −4.7094 and the “Log2 Fold Change CCNA2” value (colon cell line HCT; [2]) was −5.163. The “Log2 Fold Change CCNB1” value (colon cell line HCT; [2]) was −4.231, the “Log2 Fold Change CCNB2” value (colon cell line HCT; [2]) was −5.041 and the “Log2 Fold Change CCNE2” value (colon cell line HCT; [2]) was −5.409. The “Log2 Fold Change CDC6” value (colon cell line HCT; [2]) was −4.121, the “Log2 Fold Change CDC7” value (colon cell line HCT; [2]) was −2.499 and the “Log2 Fold Change CDC20” value (colon cell line HCT; [2]) was −4.826. For the same molecule, the “Log2 Fold Change CDC25A” value (colon cell line HCT; [2]) was −2.858, the “Log2 Fold Change CDC25C” value (colon cell line HCT; [2]) was −5.142 and the “Log2 Fold Change CDC45” value (colon cell line HCT; [2]) was −4.679. The “Log2 Fold Change CDK1” value (colon cell line HCT; [2]) was −4.779, the “Log2 Fold Change CDKN2C” value (colon cell line HCT; [2]) was −5.14 and the “Log2 Fold Change CHEK1” value (colon cell line HCT; [2]) was −1.994. The “Log2 Fold Change CHEK2” value (colon cell line HCT; [2]) was −2.186, the “Log2 Fold Change DBF4” value (colon cell line HCT; [2]) was −2.536 and the “Log2 Fold Change E2F1” value (colon cell line HCT; [2]) was −4.309. The “Log2 Fold Change E2F2” value (colon cell line HCT; [2]) was −5.296, the “Log2 Fold Change ESPL1” value (colon cell line HCT; [2]) was −4.821 and the “Log2 Fold Change MAD2L1” value (colon cell line HCT; [2]) was −4.388. The “Log2 Fold Change MCM2” value (colon cell line HCT; [2]) was −3.686, the “Log2 Fold Change MCM3” value (colon cell line HCT; [2]) was −2.599 and the “Log2 Fold Change MCM4” value (colon cell line HCT; [2]) was −3.347. The “Log2 Fold Change MCM5” value (colon cell line HCT; [2]) was −4.183, the “Log2 Fold Change MCM6” value (colon cell line HCT; [2]) was −3.834 and the “Log2 Fold Change MCM7” value (colon cell line HCT; [2]) was −3.817. The “Log2 Fold Change ORC1” value (colon cell line HCT; [2]) was −4.987, the “Log2 Fold Change ORC6” value (colon cell line HCT; [2]) was −3.9103 and the “Log2 Fold Change PKMYT1” value (colon cell line HCT; [2]) was −3.971. The “Log2 Fold Change PLK1” value (colon cell line HCT; [2]) was −4.8821, the “Log2 Fold Change PTTG1” value (colon cell line HCT; [2]) was −2.317 and the “Log2 Fold Change RBL1” value (colon cell line HCT; [2]) was −3.043. For the same molecule, the “Log2 Fold Change SKP2” value (colon cell line HCT; [2]) was −2.823, the “Log2 Fold Change SMC1A” value (colon cell line HCT; [2]) was −1.934 and the “Log2 Fold Change TTK” value (colon cell line HCT; [2]) was −4.824. The “Log2 Fold Change WEE1” value (colon cell line HCT; [2]) was −2.394, the “number of genes activated by p53 that were upregulated” value (colon cell line HCT; data not shown) was > 80 genes and the “number of genes regulated by E2F-1 and E2F-4 that were downregulated” value (colon cell line HCT; data not shown) was > 500 genes. For the same molecule, the “Log2 Fold Change CCND1” value (colon cell line HCT; [3]) was 1.792, the “Log2 Fold Change CD82” value (colon cell line HCT; [3]) was 1.878 and the “Log2 Fold Change CDKN1A” value (colon cell line HCT; [3]) was 3.19. For the same molecule, the “Log2 Fold Change FAS” value (colon cell line HCT; [3]) was 2.667, the “Log2 Fold Change GADD45A” value (colon cell line HCT; [3]) was 1.969 and the “Log2 Fold Change MDM2” value (colon cell line HCT; [3]) was 3.166. The “Log2 Fold Change PMAIP1” value (colon cell line HCT; [3]) was 3.102, the “Log2 Fold Change RRM2B” value (colon cell line HCT; [3]) was 2.678 and the “Log2 Fold Change SERPINB5” value (colon cell line HCT; [3]) was 2.471. The “Log2 Fold Change SERPINE1” value (colon cell line HCT; [3]) was 3.232, the “Log2 Fold Change SESN1” value (colon cell line HCT; [3]) was 1.955 and the “Log2 Fold Change SESN2” value (colon cell line HCT; [3]) was 2.19. The “Log2 Fold Change THBS1” value (colon cell line HCT; [3]) was 1.872, the “Log2 Fold Change TP53I3” value (colon cell line HCT; [3]) was 3.87 and the “Log2 Fold Change ZMAT3” value (colon cell line HCT; [3]) was 3.367. The “genes related to cell cycle” value (colon cell line HCT; treated vs not treated) was “downregulated” and the p-53 related genes (colon cell line HCT; treated vs not treated) was “upregulated”.
With `COc1cc2c(NC3CCN(C(C)C)CC3)nc(N3CCC(F)(F)CC3)nc2cc1OCCCN1CCCC1` [Compound 400, 2-(4,4-difluoropiperidin-1-yl)-N-(1-isopropylpiperidin-4-yl)-6-methoxy-7-(3-(pyrrolidin-1-yl)propoxy)quinazolin-4-amine, reference compound] the IL17 protein levels (IL17) was “significantly suppresses”, the Papp (in vitro; PAMPA permeability Classification, 20 μM donor) was 0.055 to 1.5 ×10⁻⁶ cm/s and the Papp (in vitro; Permeability, Pe, 20 μM donor in PBS/MeOH 90:10) was 0.178 ×10⁻⁶ cm/s. For the same molecule, the “effects in weight change (MTD studies)” value (C57BL/6 mice; 50 mg/kg daily oral) was “not cause any effects in weight change”, the “Tregs (%)” value (Naïve human CD4 T cells) was 4.7% and the “increase of the number of Tregs over untreated” value (Naïve human CD4 T cells) was 1.46 fold.
